{
  "source": "patent US11767316B2",
  "about": "“Non-fused thiophene derivatives and their uses” (ENYO PHARMA, priority 2018, dated 2023)",
  "key": {"[1]": {"biological_target": "T1, CISD1 Gene Product (mitoNEET) (Homo sapiens, UniProt Q9NZ45)", "T1 sequence (Q9NZ45 33-108 limits assumed)": "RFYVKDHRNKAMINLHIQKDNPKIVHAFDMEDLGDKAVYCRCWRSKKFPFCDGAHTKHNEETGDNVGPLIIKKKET", "test": "Stability of Fe-S cluster binding of purified NEET protein (absorbance 458 nm), mitoNEET", "type": "biochemical", "method": "The modulator effect on the NEET proteins encoded by human CISD1, CISD2, and CISD3 genes by the compounds of the invention has been tested and is reported below. Particularly, the biochemical function of the NEET proteins is measured by the stability of Fe—S cluster binding of the purified NEET proteins.\nThe Fe—S cluster binding capacity of NEET proteins is known to be coordinated by four amino-acids in a stretch of 16 (three Cysteine and one Histidine). As the lability of the Fe—S cluster of NEET proteins is sensitive to the environment, cluster stability measurements are one of the measures of interactions of NEET proteins with small molecules and compounds. NEET protein/2Fe-2S cluster stability can be assessed by monitoring the decay in absorbance of its characteristic 458-nm peak (characteristic of the oxidized 2Fe-2S cluster) over time. Each NEET protein (mitoNEET, NAF-1 and Miner 2) was tested for its Fe—S binding in the absence or presence of a compound according to the invention (see table 3 below). […]\nAt pH 6, all the three NEET proteins (mitoNEET, NAF-1 and Miner 2) have a characteristic rate of loss of the bound Fe—S cluster that can be measured by the decrease of absorbance at wavelength 458 nm over time, using a spectrophotometer. […]\nA reaction mix containing DMSO diluted in the Bis-Tris Buffer with or without a compound of the invention was prepared. […] The absorbance at wavelength 458 nm was taken at 5 minutes intervals at 37° C. with a spectrofluorimeter. […]\nIn addition to time monitoring, residual bound Fe—S cluster to NEET protein was measured at the final point of the spectrometry assay for each Test sample and compared to the Control sample data (in parenthesis table 3). This residual binding is measured by the differential percentage between the absorbance 458 nm at time zero and the absorbance 458 nm at the end of the experiment (i.e. respectively 500 or 180 minutes as described hereabove), showing the percentage of NEET protein still able to bind a Fe—S cluster. […]"}, "MAXF 401": {"test_system": "MAXF 401", "test": "Cytotoxicity, propidium iodide based monolayer assay, MAXF 401", "type": "cell-based", "conditions": "Homo sapiens, MAXF401, 96 h; MAXF 401 (breast adeno carcinoma), four days of treatment, T/C=50%; read-out: Absolute IC50", "method": "The cytotoxicity was tested for compounds of the invention on five different cell-lines, namely LXFL 1121, MAXF 401, MMXF L-636, PRXF PC-3M and UXF 1138 which are respectively lung large cell carcinoma, breast adeno carcinoma, multiple myeloma, prostate adeno carcinoma and uterine sarcoma.\nA working stock solution of the test compounds was prepared in DMSO at a concentration of 33 mM or 8.25 mM, and small aliquots were stored at −20° C. On each day of an experiment, a frozen aliquot of the working stock solution was thawed and stored at room temperature prior to and during treatment.\nAll liquid handling steps were performed using the Tecan Freedom EVO 200 platform. First, serial 2-fold dilutions of the 33 mM DMSO working stock solution were done in DMSO. […]\nA modified propidium iodide (PI) based monolayer assay was used to assess the anti-cancer activity of the compounds. Briefly, cells were harvested from exponential phase cultures, counted and plated in 96 well flat-bottom microtiter plates at a cell density of 4,000 to 40,000 cells/well dependent on the cell line's growth rate. […] After an incubation period of 1-2 hours at room temperature, fluorescence (FU) was measured using the Enspire Multimode Plate Reader (excitation λ=530 nm, emission λ=620 nm) to quantify the amount of attached viable cells. […]"}},
  "data": [
    {"smiles": "O=C(Nc1scc(C2CCc3ccccc3C2)c1C(=O)O)c1ccccc1", "note": "(stereo not shown) [#16]", "values": [
      {"measurement": "Time (in minutes) to achieve 50% loss of bound cluster (Absorbance 458 nm)", "setting": "[1]; mitoNEET 20 μM, compound 60 μM, pH 6, 37° C., vehicle control 80", "result": "35 (80) minutes"},
      {"measurement": "Residual cluster bound at end of experiment (Percentage Absorbance 458 nm at time zero)", "setting": "[1]; mitoNEET, end of experiment 180 minutes, compound 60 μM, pH 6, vehicle control 16%", "result": "0% (16%)"},
      {"measurement": "Stabiliser or destabiliser of NEET protein/Fe-S cluster binding", "setting": "[1]; mitoNEET, destabiliser = time to 50% cluster loss decreased by more than 25% vs control", "result": "destabilisers"},
      {"measurement": "IC50", "setting": "MAXF 401", "result": 507, "unit": "nM"}
    ]}
  ]
}
